According to patent publication US20110136762A1, “FUNGICIDAL PYRIDAZINES” (E.I. Du Pont de Nemours and Company, priority 2008, published 2011):
Marks after values point to notes of the source that are not given here.

Assays:
Format in all cases: in vivo
[1] = system: Puccinia recondita f. sp. tritici; assay: Test B: wheat leaf rust, preventive spray on wheat seedlings, visual disease rating; conditions: 40 ppm (marked *), 100 = 100% disease control, 0 = no disease control relative to controls; for pest or weed control at 40 ppm: 192 h
Outline: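 Seedlings were sprayed to run-off at 200 ppm (500 g/ha), or at 40 ppm where marked *, then inoculated with spores the next day. Plants were held at saturated humidity at 20° C for 24 h and then in a growth chamber at 20° C for 7 days before visual disease rating.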

Botrytis cinerea = assay: Test F: tomato Botrytis, preventive spray on tomato seedlings, visual disease rating; conditions: 40 ppm (marked *), 100 = 100% disease control, 0 = no disease control relative to controls; for pest or weed control at 40 ppm: Botrytis cinerea
Outline: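 Preventive test: tomato seedlings sprayed to run-off at 200 ppm (500 g/ha) or, where marked *, 40 ppm, then inoculated next day with B. cinerea spores. Kept 48 h at saturated humidity and 20° C, then 3 days at 24° C. Disease assessed visually.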

Erysiphe graminis = assay: Test A: wheat powdery mildew, preventive spray on wheat seedlings, visual disease rating; conditions: 40 ppm (marked *), 100 = 100% disease control, 0 = no disease control relative to controls; for pest or weed control at 40 ppm: Blumeria graminis, 192 h
Outline: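 Seedlings were sprayed to run-off with test suspension at 200 ppm (500 g/ha), or 40 ppm where marked. They were dust-inoculated with spores the next day and kept 8 days at 20 °C. Disease was then rated visually.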

Septoria nodorum = assay: Test D: wheat glume blotch, preventive spray on wheat seedlings, visual disease rating; conditions: 40 ppm (marked *), 100 = 100% disease control, 0 = no disease control relative to controls; for pest or weed control at 40 ppm: Parastagonospora nodorum
Outline: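 Wheat seedlings sprayed to run-off with compound at 200 ppm (500 g/ha), or 40 ppm where marked, then inoculated with Septoria nodorum spores the next day. Held 48 h in saturated atmosphere at 20° C, then 7 days in a growth chamber at 20° C before visual disease rating.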

Alternaria solani = assay: Test E: tomato early blight, preventive spray on tomato seedlings, visual disease rating; conditions: 40 ppm (marked *), 100 = 100% disease control, 0 = no disease control relative to controls; for pest or weed control at 40 ppm: Alternaria solani
Outline: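 Tomato seedlings sprayed to run-off with test suspension at 200 ppm (equivalent to 500 g/ha), or 40 ppm where marked "*", as a preventive treatment before A. solani challenge. Disease then rated visually.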

Septoria tritici = assay: Test C: wheat leaf blotch, preventive spray on wheat seedlings, visual disease rating; conditions: 40 ppm (marked *), 100 = 100% disease control, 0 = no disease control relative to controls; for pest or weed control at 40 ppm: Zymoseptoria tritici, 504 h
Outline: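 Wheat seedlings were sprayed to run-off with test suspension at 200 ppm (500 g/ha), or at 40 ppm where marked *. They were inoculated with spores the next day and held in saturated atmosphere at 20° C for 48 h. After a further 19 days in a growth chamber at 20° C, disease was rated visually.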

COc1ccncc1-c1c(-c2ccccc2F)nnc(Cl)c1-c1c(F)cc(F)cc1F [Compound 40]
Test B rating (disease control, wheat leaf rust) [1]: 100* %
Test F rating (disease control, tomato Botrytis) (Botrytis cinerea): 100* %
Test A rating (disease control, wheat powdery mildew) (Erysiphe graminis): 73* %
Test D rating (disease control, wheat glume blotch) (Septoria nodorum): 60* %
Test E rating (disease control, tomato early blight) (Alternaria solani): 93* %
Test C rating (disease control, wheat leaf blotch) (Septoria tritici): 100* %

Cc1nnc(-c2ccccc2F)c(-c2cncc(F)c2)c1-c1c(F)cc(F)cc1F [Compound 41]
Test B rating (disease control, wheat leaf rust) [1]: 100* %
Test F rating (disease control, tomato Botrytis) (Botrytis cinerea): 100* %
Test A rating (disease control, wheat powdery mildew) (Erysiphe graminis): 97* %
Test D rating (disease control, wheat glume blotch) (Septoria nodorum): 98* %
Test E rating (disease control, tomato early blight) (Alternaria solani): 98* %
Test C rating (disease control, wheat leaf blotch) (Septoria tritici): 100* %

COc1ccncc1-c1c(-c2ccccc2F)nnc(C)c1-c1c(F)cc(F)cc1F [Compound 42]
Test B rating (disease control, wheat leaf rust) [1]: 99* %
Test F rating (disease control, tomato Botrytis) (Botrytis cinerea): 100* %
Test A rating (disease control, wheat powdery mildew) (Erysiphe graminis): 78* %
Test D rating (disease control, wheat glume blotch) (Septoria nodorum): 0* %
Test E rating (disease control, tomato early blight) (Alternaria solani): 41* %
Test C rating (disease control, wheat leaf blotch) (Septoria tritici): 100* %

COc1cc(OC)c(Cl)c(-c2c(-c3ccccc3F)nnc(Cl)c2-c2c(F)cc(F)cc2F)c1 [Compound 43]
Test B rating (disease control, wheat leaf rust) [1]: 100* %
Test F rating (disease control, tomato Botrytis) (Botrytis cinerea): 100* %
Test A rating (disease control, wheat powdery mildew) (Erysiphe graminis): 99* %
Test D rating (disease control, wheat glume blotch) (Septoria nodorum): 100* %
Test E rating (disease control, tomato early blight) (Alternaria solani): 99* %
Test C rating (disease control, wheat leaf blotch) (Septoria tritici): 97* %

COc1cncc(-c2c(-c3ccccc3F)nnc(Cl)c2-c2c(F)cc(F)cc2F)c1 [Compound 44, 3-chloro-6-(2-fluorophenyl)-5-(5-methoxy-3-pyridinyl)-4-(2,4,6-trifluorophenyl)pyridazine]
pest or weed control at 40 ppm [1]: 99%
pest or weed control at 40 ppm (Botrytis cinerea): 100%
pest or weed control at 40 ppm (Erysiphe graminis): 100%
pest or weed control at 40 ppm (Septoria nodorum): 100%
pest or weed control at 40 ppm (Alternaria solani): 100%
pest or weed control at 40 ppm (Septoria tritici): 99%

COc1cc(OC)cc(-c2c(-c3ccccc3F)nnc(Cl)c2-c2c(F)cc(F)cc2F)c1 [Compound 45, 3-chloro-5-(3,5-dimethoxyphenyl)-6-(2-fluorophenyl)-4-(2,4,6-trifluorophenyl)pyridazine]
pest or weed control at 40 ppm [1]: 100%
pest or weed control at 40 ppm (Botrytis cinerea): 100%
pest or weed control at 40 ppm (Erysiphe graminis): 100%
pest or weed control at 40 ppm (Septoria nodorum): 100%
pest or weed control at 40 ppm (Alternaria solani): 100%
pest or weed control at 40 ppm (Septoria tritici): 99%

COc1cncc(-c2c(-c3ccccc3F)nnc(C)c2-c2c(F)cc(F)cc2F)c1 [Compound 46]
Test B rating (disease control, wheat leaf rust) [1]: 100* %
Test F rating (disease control, tomato Botrytis) (Botrytis cinerea): 100* %
Test A rating (disease control, wheat powdery mildew) (Erysiphe graminis): 97* %
Test D rating (disease control, wheat glume blotch) (Septoria nodorum): 0* %
Test E rating (disease control, tomato early blight) (Alternaria solani): 100* %
Test C rating (disease control, wheat leaf blotch) (Septoria tritici): 99* %
